Tests used:
[1] = PK of L4L-121 versus free TC in healthy mice; settings: mouse, in vivo, one intravenous injection 2.5 mg/kg (normalized to TC)
From the text: […]. […] […]. […] […]

HUVECs = assay: Reoxygenation of HUVECs under hypoxic conditions (BioTracker 520 Green Hypoxia Dye, flow cytometry); settings: continuous hypoxic conditions (1% PO2)
Method: For quantification of the hypoxia levels, cells were then incubated for 1 h with 1.5 μM BioTracker 520 Green Hypoxia Dye (Sigma-Aldrich) before being washed and stored in the hypoxia chamber for 1 h. […] Hypoxia levels were quantified with a BD Accuri™ C6 cell analyzer with a direct read-out of the BioTracker probe. The results were analyzed with FlowJo software version 10 (TreeStar).

[2] = Liposomal CTC and MTC PK in mice; parameters: species or system Balb/c mice; settings: mouse, in vivo
Method: 5 μL of each plasma sample was mixed with 395 μL methanol containing 1% formic acid. Sample mixtures were well mixed by vortexing. […] Samples were vortexed and then centrifuged at 10000 RPM for 10 min at room temperature. 200 μL of supernatant was removed from each sample without disturbing pellet and analyzed by HPLC. If the amount of plasma permitted, this analysis was duplicated.
The concentration of STC in the plasma samples was quantified by standard curve constructed by analyzing plasma samples containing known amount of STC. PK profiles were analyzed.

[3] = mouse, in vivo, iv, 50 mg/kg

Structure (SMILES) | half-life [1] [min] | AUC ([1]; read-out: exposure (AUC)) [ng·h/mL] | reoxygenation effect (PO2) (HUVECs; 5 μg/mL TC, 30 min post-treatment) | PO2 after loss of efficacy (HUVECs; 3 h after treatment) [% PO2] | half-life (t1/2) [2] | T½ [3]
CC(/C=C/C=C(\C)C(=O)O)=C\C=C\C=C(C)\C=C\C=C(/C)C(=O)O [free TC, trans-crocetin free acid] | 37.1 | 2700 | up to 15 % PO2 | 5 | – | –
CC(/C=C/C=C(\C)C(=O)[O-])=C\C=C\C=C(C)\C=C\C=C(/C)C(=O)[O-].[Na+].[Na+] [STC free drug, sodium trans-crocetinate] | – | – | – | – | half an hour | less than 0.5 h
